Assay results published in patent US6613776B2, “Pyrazole compounds useful as protein kinase inhibitors” (Vertex Pharmaceuticals Incorporated, priority 2000, dated 2003).

Tests used:
GSK-3β (AA 1-420) = target: T1, GSK-3β (AA 1-420) (Homo sapiens, UniProt P49841); assay: Ki determination for the inhibition of GSK-3 (coupled enzyme system); type: biochemical; details: 20 μM ATP, 300 μM peptide, 20 nM GSK-3β, 30° C.
T1 construct: GSK-3β (AA 1-420)
Procedure: Compounds were screened for their ability to inhibit GSK-3β (AA 1-420) activity using a standard coupled enzyme system (Fox et al. (1998) Protein Sci. 7, 2249). Reactions were carried out in a solution containing 100 mM HEPES (pH 7.5), 10 mM MgCl2, 25 mM NaCl, 300 μM NADH, 1 mM DTT and 1.5% DMSO. Final substrate concentrations in the assay were 20 μM ATP (Sigma Chemicals, St Louis, Mo.) and 300 μM peptide (HSSPHQS(PO3H2)EDEEE, American Peptide, Sunnyvale, Calif.). Reactions were carried out at 30° C. and 20 nM GSK-3β. Final concentrations of the components of the coupled enzyme system were 2.5 mM phosphoenolpyruvate, 300 μM NADH, 30 μg/ml pyruvate kinase and 10 μg/ml lactate dehydrogenase.
An assay stock buffer solution was prepared containing all of the reagents listed above with the exception of ATP and the test compound of interest. The assay stock buffer solution (175 μl) was incubated in a 96 well plate with 5 μl of the test compound of interest at final concentrations spanning 0.002 μM to 30 μM at 30° C. for 10 min. Typically, a 12 point titration was conducted by preparing serial dilutions (from 10 mM compound stocks) with DMSO of the test compounds in daughter plates. […] Rates of reaction were obtained using a Molecular Devices Spectramax plate reader (Sunnyvale, Calif.) over 10 min at 30° C. The Ki values were determined from the rate data as a function of inhibitor concentration.

Aurora-2 = target: T2, Aurora-2 (Homo sapiens, UniProt O14965); assay: Ki determination for the inhibition of Aurora-2 (coupled enzyme assay); type: biochemical; details: 70 nM Aurora-2, 30° C.
T2 sequence (O14965 1-403): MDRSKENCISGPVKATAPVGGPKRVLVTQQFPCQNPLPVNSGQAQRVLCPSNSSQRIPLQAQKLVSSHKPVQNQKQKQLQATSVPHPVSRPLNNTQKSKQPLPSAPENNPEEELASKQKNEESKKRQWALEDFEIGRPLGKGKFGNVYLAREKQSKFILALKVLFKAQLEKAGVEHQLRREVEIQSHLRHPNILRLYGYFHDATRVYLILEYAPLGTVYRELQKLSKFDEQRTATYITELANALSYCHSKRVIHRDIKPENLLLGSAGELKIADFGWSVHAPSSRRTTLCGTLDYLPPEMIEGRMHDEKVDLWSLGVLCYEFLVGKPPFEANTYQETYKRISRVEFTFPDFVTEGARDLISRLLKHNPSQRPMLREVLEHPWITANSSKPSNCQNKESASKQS
Procedure: Compounds were screened in the following manner for their ability to inhibit Aurora-2 using a standard coupled enzyme assay (Fox et al (1998) Protein Sci 7, 2249).
To an assay stock buffer solution containing 0.1M HEPES 7.5, 10 mM MgCl2, 1 mM DTT, 25 mM NaCl, 2.5 mM phosphoenolpyruvate, […], 30 mg/ml pyruvate kinase, 10 mg/ml lactate dehydrogenase, […], and 800 μM peptide (LRRASLG, American Peptide, Sunnyvale, Calif.) was added a DMSO solution of a compound of the present invention to a final concentration of 30 μM. The resulting mixture was incubated at 30° C. for 10 min. The reaction was initiated by the addition of 10 μL of Aurora-2 stock solution to give a final concentration of 70 nM in the assay. The rates of reaction were obtained by monitoring absorbance at 340 nm over a 5 minute read time at 30° C. using a BioRad Ultramark plate reader (Hercules, Calif.). The Ki values were determined from the rate data as a function of inhibitor concentration.

T1 sequence (P49841 whole entry, the tested form may be a part): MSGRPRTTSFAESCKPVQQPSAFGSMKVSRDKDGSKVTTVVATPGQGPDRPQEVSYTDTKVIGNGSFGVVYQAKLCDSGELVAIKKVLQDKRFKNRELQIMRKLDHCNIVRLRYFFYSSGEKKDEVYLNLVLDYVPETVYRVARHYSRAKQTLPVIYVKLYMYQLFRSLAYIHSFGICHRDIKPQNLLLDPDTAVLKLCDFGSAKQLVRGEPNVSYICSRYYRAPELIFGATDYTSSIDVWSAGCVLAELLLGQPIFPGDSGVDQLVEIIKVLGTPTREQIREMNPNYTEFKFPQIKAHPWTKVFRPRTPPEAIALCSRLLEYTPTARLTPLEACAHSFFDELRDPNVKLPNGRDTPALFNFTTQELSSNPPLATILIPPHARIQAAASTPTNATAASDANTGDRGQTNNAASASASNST

## COC(=O)c1cc(Nc2ccnc(N3CCCCC3)n2)n[nH]1 [IV-8]
GSK-3β (AA 1-420)
  Ki: 100 to 1000 nM

## Cc1cc(Nc2nc(N3CCC(C)CC3)nc3nc[nH]c23)n[nH]1 [IV-33, [2-(4-Methylpiperidin-1-yl)-purin-4-yl]-(S-methyl-2H-pyrazol-3-yl)-amine]
GSK-3β (AA 1-420)
  Ki: 100 to 1000 nM
Aurora-2
  Ki: 100 to 1000 nM
other
  melting point: > 300 °C
